Article PMC4301837, “Aldosterone synthase inhibition: cardiorenal protection in animal disease models and translation of hormonal effects to human subjects” (Journal of Translational Medicine, 2014)
Marks after values point to notes of the source that are not given here.

What was measured:
[1] = test system: ACTH-stimulated aldosterone and corticosterone synthesis; parameters: method as in PMID 20354176; conditions: in vivo rat ACTH stimulation model; previous study; cited from earlier work
human CYP11B2 = test system: human CYP11B2; parameters: method as in PMID 24899257; conditions: cited from earlier work
[2] = test system: Ang II-stimulated aldosterone release; parameters: method as in D. Rigel, personal communication; conditions: dogs; ref D. Rigel, personal communication; read-out: EC50, inhibition of Ang II-stimulated aldosterone release; cited from earlier work
[3] = dogs, ref D. Rigel, personal communication, cited from earlier work
[4] = test system: dTG rats with pre-established cardiorenal disease; experiment: Survival study in older, enalapril-pre-treated dTG rats with established cardiorenal disease; assay type: in vivo, rat; conditions: male dTG rats, 10 mg/kg/day (40 mg/L in drinking water) from 3 to 8 weeks of age
[5] = test system: dTG rats overexpressing human renin and angiotensinogen; assay type: in vivo
[6] = test system: dTG rats overexpressing human renin and angiotensinogen; experiment: Survival study in young dTG rats; assay type: in vivo, rat
[7] = test system: ACTH-stimulated aldosterone, cortisol and precursors; experiment: Human ACTH (cortisol) stimulation test, multiple-dose phase; assay type: in vivo
healthy male volunteers [8] = experiment: Human safety and tolerability; assay type: in vivo; conditions: single or multiple doses
healthy male volunteers [9] = experiment: Human pharmacodynamics, multiple-dose phase
[10] = dTG rats, LCI699 3–100 mg/kg/day, eplerenone 30 mg/kg/day
[11] = eplerenone 100 mg once daily, ANCOVA mean

In the case of `N#Cc1ccc([C@H]2CCCc3cncn32)cc1` [FAD286A, reference compound], the “selectivity factor by exposure, aldosterone synthase over 11β-hydroxylase” value [1] is listed as […], the IC50 (human CYP11B2; recombinant hamster fibroblasts expressing human CYP11B1 and CYP11B2, read-out: IC50, inhibition of aldosterone synthesis) is listed as […] and the “selectivity factor, inhibition of aldosterone vs cortisol synthesis” value (human CYP11B2; recombinant hamster fibroblasts) is listed as […]. The EC50 [2] was 136 nM, the oral bioavailability ([3]; 1 mg/kg oral dose) was 33% and the half-life [3] was 54 to 72 min.
In the case of `CCOC(=O)[C@H](CCc1ccccc1)N[C@@H](C)C(=O)N1CCC[C@H]1C(=O)O` [enalapril, reference compound], the “prolongation of median survival by pre-treatment” value [4] is reported as “approximately 4 months”.
In the case of `COC(=O)[C@@H]1CC2=CC(=O)CC[C@]2(C)[C@@]23O[C@@H]2C[C@@]2(C)[C@@H](CC[C@@]24CCC(=O)O4)[C@H]13` [eplerenone, reference compound], the “effect on BUN levels” value ([5]; 30 mg/kg) is reported as “no significant effect”, the “effect on LV fractional shortening” value ([5]; 30 mg/kg) is reported as “no significant effect” and the “effect on LV isovolumic relaxation time to RR (IVRT/RR) ratio” value ([5]; 30 mg/kg) is reported as “no significant effect”. For the same compound, the “effect on urine output” value ([5]; 30 mg/kg) was “no significant effect”, the “effect on plasma aldosterone concentration” value ([5]; dTG rats treated 3 to 7 weeks of age, LCI699 3–100 mg/kg/day in drinking water, eplerenone 30 mg/kg/day in chow) was “had no effect” and the “effect on myocardial cell size” value ([5]; dTG rats, LCI699 3–100 mg/kg/day, eplerenone 30 mg/kg) was “reduced but did not normalize”. The “effect on mean arterial pressure” value [5, 10] was “neither LCI699 nor eplerenone normalized arterial pressure”, the “effect on serum potassium” value [5, 10] was “had no effect” and the “effect on urinary albumin excretion” value [5, 10] was “slightly increased”. The “effect on urinary aldosterone excretion” value [5, 10] was “significantly increased”, the “effect on LV weight” value ([5]; dTG rats, LCI699 3–100 mg/kg/day, eplerenone 30 mg/kg, data not shown) was “had no effect” and the “maximum effective dose for prolongation of survival” value ([6]; young dTG rats) was 30 mg/kg. For the same compound, the “doses at which survival was significantly prolonged” value ([6]; young dTG rats without established cardiorenal disease, P < 0.01) was > 10 mg/kg/day, the “maximum median survival time” value ([6]; young dTG rats, dose–median survival curves) was 8.4 weeks and the “effect on ACTH-stimulated 11-DOC levels” value ([7]; LCI699 0.5 mg, eplerenone 100 mg) was “no significant effect”. The “effect on cortisol precursors (ACTH-stimulated)” value ([7]; eplerenone 100 mg and lower doses of LCI699 (0.5, 1 mg), Day 6 or Day 13) was “no significant effect”, the “increase in ACTH-stimulated peak aldosterone levels” value ([7]; eplerenone 100 mg, Day 6) was 63% and the “increase in pre-ACTH aldosterone levels 2 h post-dose vs Day −2” value ([7]; eplerenone 100 mg, Day 6) was 29%. The “changes in supine systolic or diastolic blood pressure or heart rate compared with placebo” value (healthy male volunteers [8]) was “no consistent changes”, the “Plasma potassium, Δ Day2 vs baseline (Day −1)” value (healthy male volunteers [9]; [11]) was “+0.08 mEq/L” and the “Plasma potassium, Δ Day7 vs baseline (Day −1)” value (healthy male volunteers [9]; [11]) was −0.02 mEq/L. For the same compound, the “Plasma potassium, Δ Day14 vs Day 7” value (healthy male volunteers [9]; [11]) was −0.09 mEq/L, the “Plasma sodium, Δ Day2 vs baseline (Day −1)” value (healthy male volunteers [9]; [11]) was −0.64 mEq/L and the “Plasma sodium, Δ Day7 vs baseline (Day −1)” value (healthy male volunteers [9]; [11]) was “+0.31 mEq/L”. The “Plasma sodium, Δ Day14 vs Day 7” value (healthy male volunteers [9]; [11]) was −0.07 mEq/L, the “Urinary potassium, Δ Day 1 vs baseline (Day −1)” value (healthy male volunteers [9]; [11]) was “+5.2 mEq/24 h” and the “Urinary potassium, Δ Day 7 vs baseline (Day −1)” value (healthy male volunteers [9]; [11]) was “+6.4 mEq/24 h”. The “Urinary potassium, Δ Day 14 vs Day 7” value (healthy male volunteers [9]; [11]) was “+3.7 mEq/24 h”, the “Urinary sodium, Δ Day 1 vs baseline (Day −1)” value (healthy male volunteers [9]; [11]) was “+53.8‡ mEq/24 h” and the “Urinary sodium, Δ Day 7 vs baseline (Day −1)” value (healthy male volunteers [9]; [11]) was “+16.2 mEq/24 h”. The “Urinary sodium, Δ Day 14 vs Day 7” value (healthy male volunteers [9]; [11]) was −24.0 mEq/24 h, the “effect on plasma aldosterone concentration” value (healthy male volunteers [9]; eplerenone 100 mg, Day 1) was “had no effect” and the “increase in 24 hour urinary aldosterone” value (healthy male volunteers [9]; eplerenone 100 mg, Day 1) was 34%. The “increase in 24 h urinary aldosterone levels” value (healthy male volunteers [9]; eplerenone 100 mg, Day 7) was 118%, the “increase in PRA from baseline” value (healthy male volunteers [9]; eplerenone 100 mg, Day 7) was 92% and the “increase in plasma aldosterone” value (healthy male volunteers [9]; eplerenone 100 mg, Day 7) was 46%. For the same compound, the “increase in 24 h urinary aldosterone levels” value (healthy male volunteers [9]; eplerenone 100 mg, Day 14) was 161%, the “increase in PRA” value (healthy male volunteers [9]; eplerenone 100 mg, Day 14) was 130% and the “increase in plasma aldosterone” value (healthy male volunteers [9]; eplerenone 100 mg, Day 14) was 63%.
